The record followed here is patent US8765769B2, “Ring-fused 4-aminopyrimidines and use thereof as stimulators of soluable guanylate cyclases” (Bayer Intellectual Property GmbH, priority 2010, dated 2014).

Molecules are shown by their SMILES.

For one assay, the system named is rabbit aorta rings. Briefly: Vasorelaxant action in vitro (phenylephrine-contracted rabbit aorta rings). Particulars: Oryctolagus cuniculus; concentration reducing the phenylephrine-induced contraction of rabbit aorta rings by 50%; DMSO 0.1%. How it is done:
B-1. Vasorelaxant Action In Vitro
Rabbits are stunned by a blow to the neck and exsanguinated. The aorta is removed, freed from adhering tissue and divided into rings of width 1.5 mm, which are placed individually under prestress into 5 ml organ baths with carbogen-sparged Krebs-Henseleit solution at 37° C. having the following composition (each mM): sodium chloride 119; potassium chloride: 4.8; calcium chloride dihydrate: 1; magnesium sulfate heptahydrate: 1.4; potassium dihydrogenphosphate: 1.2; sodium hydrogencarbonate: 25; glucose: 10. The contractile force is determined with Statham UC2 cells, amplified and digitalized using A/D transducers (DAS-1802 HC, Keithley Instruments Munich), and recorded in parallel on linear recorders. To obtain a contraction, phenylephrine is added to the bath cumulatively in increasing concentration. After several control cycles, the substance to be studied is added in increasing dosage each time in every further run, and the magnitude of the contraction is compared with the magnitude of the contraction attained in the last preceding run. This is used to calculate the concentration needed to reduce the magnitude of the control value by 50% (IC50 value). The standard administration volume is […]; the DMSO content in the bath solution corresponds to 0.1%.

Assay [1] has as its system recombinant guanylate cyclase reporter cell line. Briefly: Effect on a recombinant guanylate cyclase reporter cell line. In kind it is cell-based. The note with it: recombinant guanylate cyclase reporter cell line (Wunder et al. 2005). How it is done: B-2. Effect on a Recombinant Guanylate Cyclase Reporter Cell Line
The cellular action of the inventive compounds is determined on a recombinant guanylate cyclase reporter cell line as described in F. Wunder et al., Anal. Biochem. 339, 104-112 (2005).

In the assay on rabbit aorta rings, `CC1(C)C(=O)Nc2nc(-c3nn(Cc4ccccc4F)c4ncccc34)nc(N)c21` [Example 2, 4-amino-2-[1-(2-fluorobenzyl)-1H-pyrazolo[3,4-b]pyridin-3-yl]-5,5-dimethyl-5,7-dihydro-6H-pyrrolo[2,3-d]pyrimidin-6-one] had an IC50 of 0.048 µM. Also, the “MEC (minimal effective concentration)” value in assay [1] is 0.001 µM.

For the compound `CC1(C)C(=O)Nc2nc(-c3nn(Cc4ccccc4F)c4ncc(F)cc34)nc(N)c21` [Example 3, 4-amino-2-[5-fluoro-1-(2-fluorobenzyl)-1H-pyrazolo[3,4-b]pyridin-3-yl]-5,5-dimethyl-5,7-dihydro-6H-pyrrolo[2,3-d]pyrimidin-6-one], half-maximal inhibition with rabbit aorta rings (IC50) was put at 0.0093 µM. For the same compound, in assay [1], the “MEC (minimal effective concentration)” value was found to be 0.001 µM.

Consider `Nc1nc(-c2nn(Cc3ccccc3F)c3ncccc23)nc2c1C1(CCOC1)C(=O)N2` (stereo not drawn) [Example 4, 4′-amino-2′-[1-(2-fluorobenzyl)-1H-pyrazolo[3,4-b]pyridin-3-yl]-4,5-dihydrospiro[furan-3,5′-pyrrolo[2,3-d]pyrimidine]-6′(7′H)-one], for which, in the assay with rabbit aorta rings, the IC50 came to 0.024 µM. Moreover, in assay [1], the “MEC (minimal effective concentration)” value was 0.003 µM.
